Data taken from patent US5571799A, “(2'-5') oligoadenylate analogues useful as inhibitors of host-v5.-graft response” (Basco, Ltd., priority 1994, dated 1996).
“Also recorded” adds a separate entry of the source. Marks after values point to notes of the source that are not given here.

Columns and labels:
[1] = tested on: T-killers and T-helpers; test: Immunosuppressive activity in vivo in monkeys; set-up: species or system Macaque Rh. monkeys
Experimental: The experiments were performed on 4 year-old Macaque Rh. monkeys. The levels of the principal subpopulations of T-lymphocytes, IgA, IgG, IgM and the amount of α- and γ-interferon and interleukin II after administration (2'-5')olygoadenylate and its analogies at the concentration of 50 and 25 μg/kg of the body weight was investigated.
FLOW CYTOFLUOROGRAFIC ANALYSIS OF LYMPHOCYTE SUBSETS
Blood samples (100 μl of whole blood) were placed into a 12×17 tube. To these cells 20 μl of purified monoclonal antibodies were added with specificity for human cytotoxic/suppressor cells anti-Leu-2a (CD8), human helper/inducer anti-Leu-3a (CD4) and FITC conjugated monoclonal antibodies with specificity for natural killer cells-anti-Leu11c (CD16) (Becton Dickinson, San Jose). After 30 minutes incubation on ice, the cells were washed once and 20 μl of goat-antimouse chain phycoerythrin (Sigma P1286) conjugate were added to the tube with anti-Leu-2a and anti-Leu-3a monoclonal antibodies.
After erythrocyte lysing with FACS lysing solution (Becton Dickinson, San Jose) the cells were analyzed on FACScan flow cytometer (Becton Dickinson, San Jose) with scatter gate set on lymphocyte fraction.

[2] = tested on: IgG, IgA, IgM; test: Immune system of monkeys: serum immunoglobulins by radial immunodiffusion; type: in vivo, Macaque Rh. monkeys
Experimental: Immunosuppressive activity of the prototype 2'-5'A3 and two analogues (2'-5')A2 Ar-epoxy and (2'-5')A2 A^l-epoxy were investigated in monkeys. The experiments were performed on 4 year-old Macaque Rh. monkeys. The levels of the principal subpopulations of T-lymphocytes, IgA, IgG, IgM and the amount of α- and γ-interferon and interleukin II after administration (2'-5')olygoadenylate and its analogies at the concentration of 50 and 25 μg/kg of the body weight was investigated.
IMMUNOGLOBULIN DETERMINATION
Serum levels of IgG, IgA, IgM were determined by radial immunodiffusion using antisera against human immunoglobulin A, M, G. The amount of interferon and interleukine-II were determined by the method of Lopez-Botet M. et al., 1982.

[3] = tested on: lymphocytes; test: Lymphocyte blast-transformation reaction in operated rabbits; type: in vivo, chinchilla rabbits
Experimental: (§1) Immunosuppression was performed by IV injection of (2'-5')A2 Ar-epoxy at a dose of 5 μg per 1.0 kg body weight at 0.1 ml of the physiologic solution daily until the conclusion of the experiment. During the first two weeks of the post-operative period, blood was taken for immunological analysis; BTR with PHA and Concanavalin A were tested.
Lymphocyte Blast-Transformation Reaction in Operated Rabbits

[4] = tested on: transplanted kidney; test: Kidney allotransplantation using chinchilla rabbits; type: in vivo
Experimental: Kidney allotransplantations were performed using chinchilla rabbits of the same sex, weighing 5.0-6.5 kg. In the series of 10 rabbits, allogenic kidneys were transplanted on the neck vessels, rabbit ureter was taken outside for performing ureterocutaneostoma. Anastomosis was performed on the donor kidney vessels according to the "end-into-end" pattern, with the external carotid artery and the jugular vein joined by means of their preliminary cannulation and fixation by the cannulae with the recipient vessels.
The recipient rabbits had combined anesthesia: intravenous introduction of hexenal at a rate of 10 mg per 1.0 kg. body weight was supplemented by local anesthesia with 0.25-0.5% novocaine solution up to 15.0 ml. An intact rabbit served as a kidney donor, whose kidneys were exposed by means of transperitoneal access and perfused with 500 ml of Eurocollins solution, in situ. Simultaneously with the kidney perfusion, kidney vessels and ureters were utilized, the latter being cut at the level of iliac vessels. Having performed perfusion without extracting a kidney from the donor, kidney vessels were cannulated from the aorta and vena cava, the canulae were fixed with separate ligatures and the vessels were released. After this, the kidney was extracted.
The organs were preserved at the temperature of melting ice. Then we proceeded directly to kidney transplantation. The preservation lasted for about 2.5-3.0 hours and thermal ischemia (secondary) duration was 30-40 minutes.
as §1
The results of the experiments were evaluated clinically, by the presence or absence of urination from the ureterocutaneostoma and by the behavior of the experimental animals.

[5] = single IV 25 μg/kg, day 0 (baseline)
[6] = single IV 50 μg/kg, day 0 (baseline)

For “Adenylyl (2'-5')adenylyl (2'-5')-9-(2,3-anhydro-β-D-ribofuranosyl) adenine disodium salt [(2'-5')A2 Ar-epoxy]”, the “immunosuppressive activity, in words” value ([1]; monkeys, IV, disodium salt) was “suppresses significantly the number of T-lymphocytes in blood after only 48 hours; also recorded: strong immunosuppressive activity specifically against T-killers and T-helpers; also recorded: suppressed more actively the number of T-killer and T-helpers”, the “increase of the quantity of the subpopulation of T-helpers and T-killers” value ([1]; single IV injection (Table 10 experiment, 500 μg/kg)) was “about 50%” and the “suppression of the number of T-killers and T-helpers” value ([1]; single IV injection, 48 hours, monkeys) was 50%. It also gave an IgA [2, 5] of 2.8 g/L, an IgG [2, 5] of 7.5 g/L and an IgM [2, 5] of 0.5 g/L. For the same substance, the IgA ([2]; single IV 25 μg/kg, day 1) was 2.0 g/L, the IgG ([2]; single IV 25 μg/kg, day 1) was 7.4 g/L and the IgM ([2]; single IV 25 μg/kg, day 1) was 0.6 g/L. For the same substance, the IgA ([2]; single IV 25 μg/kg, day 2) was 1.1 g/L, the IgG ([2]; single IV 25 μg/kg, day 2) was 5.2 g/L and the IgM ([2]; single IV 25 μg/kg, day 2) was 1.0 g/L. For the same substance, the IgA ([2]; single IV 25 μg/kg, day 8) was 0.53 g/L, the IgG ([2]; single IV 25 μg/kg, day 8) was 14.5 g/L and the IgM ([2]; single IV 25 μg/kg, day 8) was 1.41 g/L. For the same substance, the IgA ([2]; single IV 25 μg/kg, day 21) was 0.38 g/L, the IgG ([2]; single IV 25 μg/kg, day 21) was 14.48 g/L and the IgM ([2]; single IV 25 μg/kg, day 21) was 1.2 g/L. The IgA [2, 6] was 2.8 g/L, the IgG [2, 6] was 9.6 g/L and the IgM [2, 6] was 0.6 g/L. It also gave an IgA ([2]; single IV 50 μg/kg, day 1) of 2.7 g/L, an IgG ([2]; single IV 50 μg/kg, day 1) of 7.8 g/L and an IgM ([2]; single IV 50 μg/kg, day 1) of 0.5 g/L. It also gave an IgA ([2]; single IV 50 μg/kg, day 2) of 0.8 g/L, an IgG ([2]; single IV 50 μg/kg, day 2) of 15.0 g/L and an IgM ([2]; single IV 50 μg/kg, day 2) of 1.1 g/L. The IgA ([2]; single IV 50 μg/kg, day 8) was 0.9 g/L, the IgG ([2]; single IV 50 μg/kg, day 8) was 14.8 g/L and the IgM ([2]; single IV 50 μg/kg, day 8) was 0.9 g/L. It also gave an IgA ([2]; single IV 50 μg/kg, day 21) of 0.38 g/L, an IgG ([2]; single IV 50 μg/kg, day 21) of 13.2 g/L and an IgM ([2]; single IV 50 μg/kg, day 21) of 0.78 g/L. The “DNA synthesis by [^3 H]-thymidine incorporated” value (from here on “DNA synthesis”) ([3]; Con A, Group 1, 2 weeks post-op., pre-op. 12.6) was 1.6 cpm(×10^3), the “DNA synthesis” value ([3]; Con A, Group 1, 48 h. post-op., pre-op. 12.6) was 1.6 cpm(×10^3) and the “DNA synthesis” value ([3]; Con A, Group 2, 2 weeks post-op., pre-op. 11.0) was 5.0 cpm(×10^3). The “DNA synthesis” value ([3]; Con A, Group 2, 48 h. post-op., pre-op. 11.0) was 4.4 cpm(×10^3), the “DNA synthesis” value ([3]; PHA 10, Group 1, 2 weeks post-op., pre-op. 6.0) was 1.5 cpm(×10^3) and the “DNA synthesis” value ([3]; PHA 10, Group 1, 48 h. post-op., pre-op. 6.0) was 0.9 cpm(×10^3). The “DNA synthesis” value ([3]; PHA 10, Group 2, 2 weeks post-op., pre-op. 7.0) was 2.1 cpm(×10^3), the “DNA synthesis” value ([3]; PHA 10, Group 2, 48 h. post-op., pre-op. 7.0) was 2.4 cpm(×10^3) and the “DNA synthesis” value ([3]; PHA 20, Group 1, 2 weeks post-op., pre-op. 2.1) was 1.6 cpm(×10^3). For the same substance, the “DNA synthesis” value ([3]; PHA 20, Group 1, 48 h. post-op., pre-op. 2.1) was 1.2 cpm(×10^3), the “DNA synthesis” value ([3]; PHA 20, Group 2, 48 h. post-op., pre-op. 1.4) was 5.5 cpm(×10^3) and the “DNA synthesis” value ([3]; Spontaneous, Group 1, 48 h. post-op., pre-op. 0.648) was 0.306 cpm(×10^3). For the same substance, the “DNA synthesis” value ([3]; Spontaneous, Group 2, 48 h. post-op., pre-op. 0.597) was 0.274 cpm(×10^3), the “suppression of lymphocyte blast-transformation stimulated with Con A” value ([3]; post-transplanted rabbits, IV 5 μg/kg) was about 10 fold and the “lymphocyte blast-transformation reaction, in words” value ([3]; two weeks following the operation) was “inhibition of the lymphocyte blast-transformation reaction”. The “animals with positive results (graft function)” value ([4]; 10 rabbits, 5 μg/kg daily IV) was “four”, the “rabbits with no graft function in the early postoperative period” value ([4]; 10 rabbits, probably vesicular thrombosis) was “four” and the “time to death after nephrectomy” value ([4]; another rabbit) was at most 48 h. The “rabbits with generalized viral infection of the respiratory tract” value ([4]; fatal) was 2 rabbits, the “duration of function of the grafted kidney” value ([4]; first group, four animals, 5 μg/kg daily IV) was “at least 2 months” and the “death after transplantation (wound suppuration, sepsis)” value ([4]; fourth group, single rabbit) was “death within the first week after transplantation”. The “graft function after ablation of contralateral kidney, in words” value ([4]; one rabbit, 1 month after operation) was “the grafted kidney continued functioning” and the “period of normal functioning of the transplanted kidney” value ([4]; rabbits, IV 5 μg/kg (summary)) was 3 months.
